Experimental data reported in patent US6391848B1, “Soybean protein nutraceuticals” (The Regents of the University of California, priority 1999, dated 2002).

How the values were obtained:
[1] = system: carcinogen-treated cultured cells; conditions: in vitro or in vivo; cited from earlier work
[2] = system: mammalian cells; experiment: effect on mitosis and kinetochore assembly of mammalian cells; assay type: cell-based
Text: (§1) The lunasin polypeptide also contains a functional RGD (arg-gly-asp) motif.

[3] = system: hypoacetylated chromatin; experiment: binding of lunasin to chromatin in cells; assay type: cell-based
Text: as §1

[4] = system: carcinogenesis; experiment: inhibition of carcinogenesis in in vitro and animal models; conditions: comparable dosages and routes of administration; cell and animal studies
Text: Exemplary lunasin-del compounds include (again using N→C nomenclature convention) shown to be effective at inhibiting carcinogenesis in in vitro and animal models include:
BBI is an 8 kDa protein that is known to dimerize in solution.

[5] = system: cell membrane integrins; experiment: binding to cell membrane integrins in mammalian cell cultures; assay type: cell-based; conditions: exogenously applied; through the RGD tripeptide
Text: as §1

[6] = system: mammalian cells; experiment: internalization of lunasin into the cell; assay type: cell-based
Text: as §1
Chromatin Modification and Tumor Suppression. […] (DePinho,1998; Brehm et al, 1998; Magnaghi-Jaulin, 1998; Pazin and Kadonaga, 1997; Hassig et al, 1997; Laherty et al, 1997). For instance, the retinoblastoma protein Rb is complexed with E2F (a family of transcription factors controlled by Rb) and HDAC1 (the major mammalian histone deacetylase which modulates chromatin structure) in mammalian cells. Rb represses E2F-regulated promoter by recruiting HDAC1 which deacetylates core histones causing a tighter association between DNA and nucleosomes, thus impairing the binding of transcription factors to recognition elements in DNA. The Rb/HDAC/E2F complex could be the target for transforming viruses leading to the release of suppression and a fully transformed state. […] Consequently, gene expression is more or less permanently repressed.

[7] = system: C3H 10T1/2 mouse fibroblast cells; experiment: in vitro transformation assay of C3H 10T1/2 cells with carcinogens MCA and DMBA; assay type: cell-based

| Compound | effect on carcinogenesis after administration of the agent is stopped [1] | effect on kinetochore assembly ([2]; exogenously applied, internalized lunasin, cells undergo normal mitosis) | effect on mitosis ([2]; when expressed in mammalian cells) | binding to chromatin ([3]; exogenously applied to mammalian cell cultures, lunasin that gets into the nucleus) | binding to chromatin ([3]; lunasin gene transfected and expressed inside the cell) | efficacy when substituted for BBI [4] | binding to cell membrane integrins [5] | internalization in the cell [6] | concentration of exogenously applied peptide (as low as) that inhibits transformation into tumorous foci ([7]; carcinogens MCA and DMBA, range 10 nM to 10 mM) [nM] | prevention of carcinogen-induced tumor formation compared with BBIC ([7]; equimolar amounts) | inhibition of carcinogen-mediated transformation of fibroblast cells into tumorous foci ([7]; exogenous application, carcinogens MCA and DMBA) |
| --- | --- | --- | --- | --- | --- | --- | --- | --- | --- | --- | --- |
| CC1=C(/C=C/C(C)=C/C=C/C(C)=C/C=C/C=C(C)/C=C/C=C(C)/C=C/C2=C(C)CCCC2(C)C)C(C)(C)CCC1 [b-carotene] | reversible effect | – | – | – | – | – | – | – | – | – | – |
| lunasin | – | appears not to affect kinetochore assembly | antimitotic effect | sufficient to effectively bind regions of hypoacetylated chromatin | preferentially binds to hypoacetylated chromatin | provides efficacy | binds to cell membrane integrins | gets internalized in the cell via the RGD motif | 10 | more effective than BBIC | inhibits the transformation |
| vitamin E | reversible effect | – | – | – | – | – | – | – | – | – | – |
